The results in this text go back to patent US11371077B2, “High throughput cell-based screening for aptamers” (MeiraGTx UK II Limited, priority 2016, dated 2022).

Where a name gives a salt, the structure may show the parent alone. Read-outs that look alike come from different tables or passages of the source. Where a SMILES comes first, the peptide text is derived from it. [ ]: non-standard residue; d: D form. The star is where a group is joined. Sta = CC(C)C[C@H](N)[C@@H](O)CC(=O)O; Isovaleryl = CC(C)CC(=O)*

What all share (type): cell-based
The test system of data set [1] is add-G6 riboswitch. In words: cells. Particulars: for fold induction at 100 µM: Homo sapiens. The source says:
(§1) A truncated human beta-globin intron sequence was synthesized and inserted in the coding sequence of a firefly luciferase gene. A mutant human DHFR exon 2 was synthesized and inserted in the middle of this truncated beta-globin intron sequence using Golden gate cloning strategy. Aptamers including xpt-G/A^1, ydhl-G/A^2, yxj^3, add^4, gdg6-G/A^5 (citations for the aptamers are incorporated herein by reference) were synthesized as oligonucleotides (“oligos”) with 4 nucleotide overhang at the 5′ end that are complementary to two different BsaI sites individually (IDT), annealed and ligated to BsaI-digested mDHFR-Luci-acceptor vector.
(§2) 3.5×10^4 HEK 293 cells were plated in a 96-well flat bottom plate the day before transfection. Plasmid DNA (500 ng) was added to a tube or a 96-well U-bottom plate. […] Then, 50 μL of this diluted transfection reagent was added to the DNA, mixed, and incubated at RT for 20 min. Finally, 7 μL of this solution was added to a well of cells in the 96-well plate.
24 hours after media change, plates were removed from the incubator, and equilibrated to RT for several minutes on a lab bench, then aspirated. Glo-lysis buffer (Promega, 100 μL, RT) was added, and the plates maintained at RT for at least 5 minutes. Then, the well contents were mixed by 50 μL trituration, and 20 μL of each sample was mixed with 20 μL of bright-glo reagent (Promega) that had been diluted to 10% in glo-lysis buffer. 96 wells were spaced on an opaque white 384-well plate. Following a 5 min incubation at RT, luminescence was measured using a Tecan machine with 500 mSec read time. […]

Data set [2] deals with ydhl-G8 riboswitch. The data set is described as follows: Luciferase reporter assay, ydhl-G8 riboswitch, transfected HEK 293 cells. Particulars: for fold induction at 100 µM: Homo sapiens.
Text: as §1, §2
(§3) 24 hours after media change, plates were removed from the incubator, and equilibrated to RT for several minutes on a lab bench, then aspirated. Glo-lysis buffer (Promega, 100 μL, RT) was added, and the plates maintained at RT for at least 5 minutes. Then, the well contents were mixed by 50 μL trituration, and 20 μL of each sample was mixed with 20 μL of bright-glo reagent (Promega) that had been diluted to 10% in glo-lysis buffer. 96 wells were spaced on an opaque white 384-well plate. Following a 5 min incubation at RT, luminescence was measured using a Tecan machine with 500 mSec read time. The luciferase activity was expressed as mean relative light unit (RLU)±S.D., and fold induction was calculated as the luciferase activity obtained with guanine treatment divided by luciferase activity obtained without guanine treatment.
In general terms: In a reporter assay the amount or activity of a reporter protein is the signal.

Data set [3] has as its system xpt-G17 riboswitch. The data set is described as follows: Luciferase reporter assay, xpt-G17 riboswitch, transfected HEK 293 cells. Particulars: preliminary screen; for fold induction at 100 µM: Homo sapiens, HEK293, xpt-G17 riboswitch; for fold induction at 100 µM / Fold Induction of luciferase activity: Prestwick library compounds at 100 μM, HEK 293; for response of guanine riboswitch xpt-G17 to compound (FIG. 1e): Prestwick library at 100 μM; for Fold Induction of luciferase activity: xpt-G17 riboswitch.
Text: as §1
(§4) 3.5×10^4 HEK 293 cells were plated in a 96-well flat bottom plate the day before transfection. Plasmid DNA (500 ng) was added to a tube or a 96-well U-bottom plate. Separately, TransIT-293 reagent (Mirus; 1.4 μL) was added to 50 μL Opti-mem I media (Life Technologies), and allowed to sit for 5 minutes at room temperature (RT). Then, 50 μL of this diluted transfection reagent was added to the DNA, mixed, and incubated at RT for 20 min. Finally, 7 μL of this solution was added to a well of cells in the 96-well plate.
as §3

Data set [4] deals with add-A6 riboswitch. In words: cells. To be noted: add-A6 riboswitch, Prestwick library compounds at 100 μM, HEK 293; for fold induction at 100 µM: Homo sapiens, HEK293, read-out: Fold Induction of luciferase activity.
Text: (§5) Riboswitches were constructed as described in PCT/US2016/016234 (in particular Examples 3 to 6), incorporated herein by reference. A truncated human beta-globin intron sequence was synthesized and inserted in the coding sequence of a firefly luciferase gene. A mutant human DHFR exon 2 was synthesized and inserted in the middle of this truncated beta-globin intron sequence using Golden gate cloning strategy. Aptamers including xpt-G/A^1, ydhl-G/A^2, yxj^3, add^4, gdg6-G/A^5 (citations for the aptamers are incorporated herein by reference) were synthesized as oligonucleotides (“oligos”) with 4 nucleotide overhang at the 5′ end that are complementary to two different BsaI sites individually (IDT), annealed and ligated to BsaI-digested mDHFR-Luci-acceptor vector.
as §4, §3

Data set [5] deals with gdg6-G8 riboswitch. In words: Luciferase reporter assay, gdg6-G8 riboswitch, transfected HEK 293 cells. To be noted: gdg6-G8 riboswitch, Prestwick library compounds at 100 μM, HEK 293; for fold induction at 100 µM: Homo sapiens, HEK293.
Text: as §5, §4, §3

The subject of data set [6] is ydhl-A6 riboswitch. The data set is described as follows: Luciferase reporter assay, ydhl-A6 riboswitch, transfected HEK 293 cells. Particulars: for fold induction at 100 µM: Homo sapiens.
Text: as §1, §2, §3

The test system of data set [7] is gdg6-A8 riboswitch. In words: Luciferase reporter assay, gdg6-A8 riboswitch, transfected HEK 293 cells. Particulars: gdg6-A8 riboswitch, Prestwick library compounds at 100 μM, HEK 293; for fold induction at 100 µM: Homo sapiens, HEK293.
Text: as §5, §4, §3

Where [8] appears, read: HEK293, read-out: Fold Induction of luciferase activity.
Setting [9] is: HEK293, read-out: Fold Induction of luciferase activity, ydhl-A6 riboswitch, Prestwick library compounds at 100 μM, HEK 293.
[10] abbreviates: HEK293, add-G6 riboswitch, Prestwick library compounds at 100 μM, HEK 293, read-out: Fold Induction of luciferase activity.
The mark [11] stands for this setting: ydhl-A6 riboswitch, Prestwick library compounds at 100 μM, HEK 293.

Turning to `Nc1ncnc2c1ncn2[C@@H]1O[C@H](COP(=O)(O)O)[C@@H](O)[C@H]1O.O` [Adenosine 5′-monophosphate monohydrate], the fold induction at 100 µM in data set [1] (setting [8]) turned out to be 9.4; in data set [2] (setting [8]), 5.9; in data set [3], 28.4. Also, the “response of guanine riboswitch xpt-G17 to compound (FIG. 1e)” value (“response of guanine riboswitch xpt-G17” below) in data set [3] is listed as “responded”. For the compound `C=CC[N@@+]12CC[C@@]34c5ccccc5N5/C=C6/[C@H]7C[C@H]8[C@@]9(CC[N@@+]8(CC=C)C/C7=C/CO)c7ccccc7N(/C=C(/[C@@H](C[C@@H]31)/C(=C\CO)C2)[C@H]54)[C@@H]69.[Cl-].[Cl-]` [Alcuronium chloride], the “Fold Induction of luciferase activity” value in data set [4] is reported as 4.2 fold. Consider `C[C@@H]1[C@H](O)[C@@H](C)/C=C/C=C/C=C/C=C/C=C/C=C/C=C/[C@H](O[C@@H]2O[C@H](C)[C@@H](O)[C@H](N)[C@@H]2O)C[C@@H]2O[C@](O)(C[C@@H](O)C[C@@H](O)[C@H](O)CC[C@@H](O)C[C@@H](O)CC(=O)O[C@H]1C)C[C@H](O)[C@H]2C(=O)O` [Amphotericin B], for which the “Fold Induction of luciferase activity” value in data set [1] (add-G6 riboswitch, Prestwick library compounds at 100 μM, HEK 293) was determined as 10.7 fold; in data set [5] it was 3.8 fold; in data set [2] (ydhl-G8 riboswitch, Prestwick library compounds at 100 μM, HEK 293), 6.5 fold; in data set [3], 21.5 fold. Besides, the “response of guanine riboswitch xpt-G17” value in data set [3] is listed as “responded”. In the case of `CN1CCCC(n2nc(Cc3ccc(Cl)cc3)c3ccccc3c2=O)CC1` (stereo not drawn) [Azelastine hydrochloride], in data set [2] (HEK293, ydhl-G8 riboswitch, Prestwick library compounds at 100 μM, HEK 293, read-out: Fold Induction of luciferase activity), the fold induction at 100 µM was determined as 3. As to `O=C(CCCN1CCC(n2c(O)nc3ccccc32)CC1)c1ccc(F)cc1` [Benperidol], the fold induction at 100 µM in data set [6] (setting [9]) was determined as 3.1. Consider `CC(=O)O[C@]1(C(C)=O)CC[C@H]2[C@@H]3C=C(Cl)C4=CC(=O)CC[C@]4(C)[C@H]3CC[C@@]21C` [Chlormadinone acetate], for which the fold induction at 100 µM in data set [1] (setting [10]) is 26.1; in data set [2] (setting [8]) it was 10.4; in data set [3], 10.3. For the same compound, the “response of guanine riboswitch xpt-G17” value in data set [3] is given as “responded”. On to `C[C@]12CC[C@H](O)C[C@H]1CC[C@@H]1[C@@H]2C[C@@H](O)[C@]2(C)[C@@H](C3=CC(=O)OC3)CC[C@]12O` [Digoxigenin], for which the fold induction at 100 µM in data set [6] (setting [9]) came to 4.5. For the same compound, the “Fold Induction of luciferase activity” value in data set [6] (ydhl-A6 riboswitch, Prestwick library compounds at 100 μM, HEK 293, 100 µM) was 3.3 fold. In turn, `C[C@]12CC[C@@H]3c4ccc(O)cc4CC[C@H]3[C@@H]1C[C@@H](O)[C@@H]2O` [Estriol] came in with a fold induction at 100 µM in data set [5] of 4.3. For the compound `O=C(OCCOCCO)c1ccccc1Nc1cccc(C(F)(F)F)c1` [Etofenamate], the fold induction at 100 µM in data set [1] (setting [10]) was determined as 5.1; in data set [2] (setting [8]), 4.8; in data set [3], 7.5. With `NS(=O)(=O)c1cc2c(cc1Cl)NCNS2(=O)=O` [Hydrochlorothiazide], the fold induction at 100 µM in data set [6] (setting [9]) came to 3.3. On to `CNC1(C)C2CCC(C2)C1(C)C` (stereo not drawn) [Mecamylamine hydrochloride], for which the fold induction at 100 µM in data set [6] (setting [9]) worked out at 3.2. On to `COC(=O)Nc1nc2ccc(SC(C)C)cc2[nH]1` [Methiazole], for which the “Fold Induction of luciferase activity” value in data set [7] is 3.8 fold; in data set [5], 3.3 fold. `NC(=O)C[S+]([O-])C(c1ccccc1)c1ccccc1` (stereo not drawn) [Modafinil]: in data set [6] (setting [9]), the fold induction at 100 µM amounted to 3.8.

For the compound `CCOC(=O)Nc1ccc2c(c1)N(C(=O)CCN1CCOCC1)c1ccccc1S2` [Moricizine hydrochloride], the fold induction at 100 µM in data set [6] (setting [8]) was found to be 10.3.

`CNc1ncnc2c1ncn2[C@@H]1O[C@H](CO)[C@@H](O)[C@H]1O` [N6-methyladenosine]: the figures for the fold induction at 100 µM in data set [1] (setting [10]), in data set [2] (setting [8]) and in data set [3] were 20.8, 10.7 and 30.7, respectively. For the same compound, the “response of guanine riboswitch xpt-G17” value in data set [3] was “responded”.

Regarding `NC(=O)c1ccc[n+]([C@@H]2O[C@H](COP(=O)([O-])OP(=O)(O)OC[C@H]3O[C@@H](n4cnc5c(N)ncnc54)[C@H](O)[C@@H]3O)[C@@H](O)[C@H]2O)c1` [Nadide], the fold induction at 100 µM in data set [1] (setting [10]) was 30.8; in data set [2] (setting [8]), 11.7; in data set [3], ~40. In addition, the “response of guanine riboswitch xpt-G17” value in data set [3] is given as “responded”. The “Fold Induction of luciferase activity” value in data set [3] (100 µM) worked out at 40.9 fold. Regarding `OCCN1CCN(CCCN2c3ccccc3C=Cc3ccccc32)CC1` [Opipramol dihydrochloride], the results for the fold induction at 100 µM in data set [7] and in data set [4] were 3.1 and 4.3, respectively. In the case of `O=C(O)CCc1nc(-c2ccccc2)c(-c2ccccc2)o1` [Oxaprozin], the fold induction at 100 µM in data set [6] (setting [9]) is 3.4. Take `CC(C)(C)NC[C@H](O)COc1ccccc1C1CCCC1` [Penbutolol sulfate]: the fold induction at 100 µM in data set [5] was determined as 3.3. For the compound `CC(C)CC(=O)N[C@H](C(=O)N[C@H](C(=O)N[C@@H](CC(C)C)[C@@H](O)CC(=O)N[C@@H](C)C(=O)N[C@@H](CC(C)C)[C@@H](O)CC(=O)O)C(C)C)C(C)C` [Pepstatin A] (Isovaleryl-VV[Sta]A[Sta]-OH), the “Fold Induction of luciferase activity” value in data set [6] (setting [11]) stood at 4.0 fold. Take `CCN1CCCC(OC(=O)C(c2ccccc2)c2ccccc2)C1` (stereo not drawn) [Piperidolate hydrochloride]: the fold induction at 100 µM in data set [6] (setting [8]) was 3.4. As for `[H]/N=C(/N)NS(=O)(=O)c1ccc(N)cc1` [Sulfaguanidine], the fold induction at 100 µM in data set [2] (setting [8]) came out at 13.9. Regarding `COc1cc2nc(N3CCN(C(=O)C4CCCO4)CC3)nc(N)c2cc1OC` (stereo not drawn) [Terazosin hydrochloride], the fold induction at 100 µM in data set [4] stood at 3.5. As for `CCCCNc1ccc(C(=O)OCCN(C)C)cc1` [Tetracaine hydrochloride], in data set [2] (setting [8]), the fold induction at 100 µM was determined as 3.6. With `Clc1ccccc1CN1CCc2sccc2C1` [Ticlopidine hydrochloride], in data set [6] (HEK293, ydhl-A6 riboswitch, Prestwick library compounds at 100 μM, HEK 293, read-out: Fold Induction of luciferase activity), the fold induction at 100 µM was 3.1. Consider `CC[C@]12CCCN3CCc4c(n(c5ccccc45)[C@@](O)(C(=O)OC)C1)[C@@H]32` [Vincamine], for which, in data set [6] (setting [8]), the fold induction at 100 µM worked out at 3.3. As to `O=C(CCCCCCC(=O)Nc1ccccc1)NO` [Vorinostat], the fold induction at 100 µM in data set [7] worked out at 6.4; in data set [1] (setting [10]), 3.6; in data set [5] it was 10.2; in data set [2] (setting [8]), 3.

With Alverine citrate salt, the “Fold Induction of luciferase activity” value in data set [6] (setting [11]) came out at 4.2 fold. As to Deptropine citrate, the “Fold Induction of luciferase activity” value in data set [4] came out at 3.3 fold.
